The assay has as its system hMSCs. Put plainly: STRO-1 stemness marker expression in hMSCs (immunostaining, ImageJ quantification). In kind it is cell-based, Human. On the procedure:
The cells were first fixed for 20 min with 4% paraformaldehyde/PBS at 4° C. After fixation, the cells were permeabilized in PBS containing 1% Triton X-100 for 15 min. Runx2, Osterix, Stro-1, Vinculin, Phalloidin, Osteopontin, Sox2, Sox9 antibodies were visualized by treating the cells with 1% (v/v) specific monoclonal antibodies for 1 hour at 37° C. Then the samples were incubated with Alexa fluor® 568 or 647 (F(ab′)2 fragment of IgG(H+L)) during 30 min at room temperature. The cell nuclei were counterstained in 20 ng/mL DAPI for 10 min at room temperature.
For this type of quantification the freeware image analysis ImageJ® software was used. The raw image was first converted to an 8-bit file, and then the unsharp mask feature was used (settings 1:0.2) to remove the image background (rolling ball radius 10). After smoothing, the resulting image, which appears similar to the original photomicrograph but with minimal background, was then converted to a binary image by setting a threshold. Threshold values were determined empirically by selecting a setting, which gave the most accurate binary image for a subset of randomly selected photomicrographs. The cell area was determined by manual delineation on raw fluorescent images. Total contact area and mean contact area per cell were calculated by “analyse particles” in ImageJ®. A minimum of 30 cells per condition were analyzed. Stro-1, CD-34+, and CD-105 expressions were determined using this procedure.
hMSCs were cultured on conventional cell culture plastic plates with or without the presence in the cell culture media of different GFR-binding compounds as defined hereins (SEQ ID NO: 50 to 104) in solution. […] This was probed by Stro-1 immunostaining after cell fixation as described in the Methods section. The quantification of Stro-1 positive contact numbers and areas was performed as described in the Methods section. A minimum of 30 cells per condition were analyzed.
RMSD values are always calculated for a GFR-binding peptide sequence exempt from any bioactive-carrier-affinity-containing group as defined herein (e.g. cysteine, WWFWG, GTPGP, etc. . . . ). When needed i.e. when attachment to a bioactive carrier is contemplated, the bioactive-carrier-affinity-containing group is then present in the GFR-binding compound when it is biologically tested. Using the method detailed in the description, the RMSD of 57 previously reported peptide sequences have been determined (Table 6) and correlated with the expression of STRO-1 after grafted on a PET surface via a procedure as already described above. […] One should note that it is commonly admitted that the expression of STRO-1 in a cell is indicative of a cell that is in a substantially non-differentiated state and the decrease of its expression of at least about 20% is indicative of a cell that has started a processes of differentiation but which may not result in the differentiation of the cell. A decrease of more than 50% would be indicative of the presence of a significant shift towards a differentiated state. A decrease of more than 70% would be indicative of the presence of a very important shift towards a differentiated state. A sustained decrease (e.g. for at least 96 h) of more than 50% or 70% would be indicative of the presence of an even more important shift towards a differentiated state.
Likewise, using the method detailed in the description, the RMSD of 87 GFR-binding peptide sequence representatives of the invention have been determined (Table 7) and correlated with the expression of STRO-1 after grafted on a PET surface via a procedure as already described above. SEQ ID NO: 1 to 49 were tested in combination with a bioactive carrier as defined above in the Examples Section (i.e. titanium, ceramics, PEEK, hydrogel, etc. . . . ), whereas SEQ ID NO: 1143 to 1180 were tested in solution.

The mark [1] stands for this setting: SEQ ID NO: 1 to 49 tested in combination with a bioactive carrier (titanium, ceramics, PEEK, hydrogel, etc.).
Where [2] appears, read: SEQ ID NO: 1143 to 1180 tested in solution.

No end group written: not given here.

Turning to “VPTKLEPISVLYKDDMGVPTLKYHYEGMAVSECGCR (Previously reported sequence) [SEQ ID NO: 1105, reference compound]”, for the setting “grafted on a PET surface”, the STRO-1 expression was 81%. As for “DKPEESSSTPTHAQCICSSLSEAIVSSVLSTRLVLSQISLTRAKRAFE (Previously reported sequence) [SEQ ID NO: 1121, reference compound]”, the STRO-1 expression (grafted on a PET surface) turned out to be 87%. Regarding NDEGLESVPTGQNAISVLYF [SEQ ID NO: 17], the STRO-1 expression under setting [1] is 31%.

For the sequence “AETLHTLGLSAPVIESAISDAI (Previously reported sequence) [SEQ ID NO: 1136, reference compound]”, the STRO-1 expression (grafted on a PET surface) is reported as 93%. Same read-out and setting: the result for “NPGASASPCCVSQDLEPLPIL (Previously reported sequence) [SEQ ID NO: 1098, reference compound]” reads 86%. In the case of “KIPKASSVPTGGSNITVQIM (GFR-binding peptide) [SEQ ID NO: 1151]”, the STRO-1 expression under setting [2] is 32%.

Take “GTPGPPSSVPTKLSPISVLYK (GTPGPPXXVPTKLSPISVLYK; GFR-binding peptide; MOD_RES (7)..(8): Xaa is C or S) [SEQ ID NO: 30]”: the STRO-1 expression under setting [1] stood at 26%. “MALPQPRGSSLSKAPVVVAPCMALKRVNIRSIVFEVLKTMNQNCIHETPN (Previously reported sequence) [SEQ ID NO: 1123, reference compound]”: the STRO-1 expression (grafted on a PET surface) is 82%. “VPAGQSPISILYI (CVPAGQSPISILYI; GFR-binding peptide) [SEQ ID NO: 46]”: the STRO-1 expression under setting [1] is listed as 20%. For “KIPKASSTQVRLRPVQIRKI (GFR-binding peptide) [SEQ ID NO: 1153]”, the STRO-1 expression under setting [2] is listed as 30%. Still for that read-out and setting: the result for “AASKASSVPQEEEPLPMVYY (GFR-binding peptide) [SEQ ID NO: 1149]” reads 23%; that for “KIPKASSVPAQLEPLPIVYY (GFR-binding peptide) [SEQ ID NO: 1171]”, 28%. In the case of “SRVLPIVVQGYVPVQDTKFLGIYYVIGPIIARVILSSSSAISSLNKS (Previously reported sequence) [SEQ ID NO: 1138, reference compound]”, under “grafted on a PET surface”, the STRO-1 expression was 84%. For the sequence HVPKPSSVPTKLSPISVLYK [SEQ ID NO: 16], under setting [1], the STRO-1 expression was determined as 23%. Take “GIPEPSSAPVDMRPVQIRKI (GFR-binding peptide) [SEQ ID NO: 1180]”: the STRO-1 expression under setting [2] was determined as 30%. Consider “PIIYYVGRNVRVEQLSNMVVRA (Previously reported sequence) [SEQ ID NO: 1087, reference compound]”, for which, under “grafted on a PET surface”, the STRO-1 expression was found to be 92%.

Consider “KIPKASSVSQQLEPISTLYL (GFR-binding peptide) [SEQ ID NO: 1165]”, for which, under setting [2], the STRO-1 expression stood at 17%. For the sequence AAPASSSVPTRLSAISMLYL [SEQ ID NO: 2], the STRO-1 expression under setting [1] was 18%. In the case of “GTPGPVPTGQSAISMLYL (GFR-binding peptide) [SEQ ID NO: 27]”, the STRO-1 expression under setting [1] turned out to be 24%. For “NEVLRFCGIQVPEGDEPLT (Previously reported sequence) [SEQ ID NO: 1094, reference compound]”, the STRO-1 expression (grafted on a PET surface) was determined as 98%. Same read-out and setting: the result for “SVPAVCSATSATGPYSSVTVTSWPSIVATGGTT (Previously reported sequence) [SEQ ID NO: 1114, reference compound]” reads 92%. “RVPSTSSAPTKMNAISMLYF (GFR-binding peptide) [SEQ ID NO: 1145]”: under setting [2], the STRO-1 expression is recorded as 23%. Turning to “SVPAVCSATSATGPYSTATNTVVVPSIVATGGTT [SEQ ID NO: 1115, reference compound]”, where the note is “grafted on a PET surface”, the STRO-1 expression turned out to be 92%.

For GGGKASSVPTKLSAISMLYL [SEQ ID NO: 21], the STRO-1 expression under setting [1] is given as 30%.

For the sequence “LSLLAPPEPVWNHETSYGSDCHVPTNVNAISKMIDKSNHQTG (Previously reported sequence) [SEQ ID NO: 1125, reference compound]”, the STRO-1 expression (grafted on a PET surface) is reported as 93%.

As for STPPTSSVPTRLSAISMLYL [SEQ ID NO: 3], the STRO-1 expression under setting [1] worked out at 19%.

Take “PIIYYVGRNVRVEQLSNMVVRRA (Previously reported sequence) [SEQ ID NO: 1088, reference compound]”: for the setting “grafted on a PET surface”, the STRO-1 expression amounted to 98%. For TVPKPSSAPTQLSAISMLYL [SEQ ID NO: 18], under setting [1], the STRO-1 expression worked out at 23%.

Consider “GTPGPAAPASSSVPARLSAISMLYL (not fully specified) [SEQ ID NO: 35]”, for which the STRO-1 expression under setting [1] was determined as 19%. Same read-out and setting: the result for AVPKASSAPTKLSAISMLYL [SEQ ID NO: 19] reads 19%; that for “VPAEESPISILYI (CVPAEESPISILYI; GFR-binding peptide) [SEQ ID NO: 48]”, 21%. Still for that read-out and setting: the result for “GTPGPPTSVPTKLSPISVLYK (GFR-binding peptide) [SEQ ID NO: 29]” reads 27%.

In the case of “ENVNLKKYRNMIVKSCGCH (Previously reported sequence) [SEQ ID NO: 1090, reference compound]”, for the setting “grafted on a PET surface”, the STRO-1 expression came to 97%. Take “STPPTSSVSQKMKPLSILYV (GFR-binding peptide) [SEQ ID NO: 1170]”: the STRO-1 expression under setting [2] was 25%.

In the case of ASASPSSVSQDLSAISMLYL [SEQ ID NO: 15], under setting [1], the STRO-1 expression is on record as 13%.

For “SSVPAVCSATSATGPYSSGSVEVTFDVYATTVY (Previously reported sequence) [SEQ ID NO: 1116, reference compound]”, under “grafted on a PET surface”, the STRO-1 expression stood at 92%. Regarding NDEGLESVPAEESPISILYI [SEQ ID NO: 47], under “SEQ ID NO: 1 to 49 tested in combination with a bioactive carrier (titanium, ceramics, PEEK, hydrogel, etc.), listed as 47”, the STRO-1 expression stood at 18%.

Turning to “AASKASSVPEKMRPVQTRKI (GFR-binding peptide) [SEQ ID NO: 1179]”, under setting [2], the STRO-1 expression was found to be 32%. As for “SATSRLALSDVPAELAA (Previously reported sequence) [SEQ ID NO: 1112, reference compound]”, the STRO-1 expression (grafted on a PET surface) is 98%. Same read-out and setting: the result for “TLXPIVSSXNPSPISFRXIKILLHDLEVVPFPKSRVR (not fully specified; X: residue not identified in the source; ends and bridges not checked) [SEQ ID NO: 1107, reference compound]” reads 84%. As to “GIPEPSSAPVGQEPLPMVYY (GFR-binding peptide) [SEQ ID NO: 1172]”, under setting [2], the STRO-1 expression stood at 28%. The same measure, in the same setting: the result for “AASKASSTPTDLNAISTLYF (GFR-binding peptide) [SEQ ID NO: 1158]” reads 20%.

For KVGKASSVPTKLEPLTILYY [SEQ ID NO: 13], under setting [1], the STRO-1 expression is recorded as 26%.

As for “SHQSAGDSIKSPARHSAPTHQEPLPD (Previously reported sequence) [SEQ ID NO: 1099, reference compound]”, the STRO-1 expression (grafted on a PET surface) is given as 91%. Still for that read-out and setting: the result for “FDSRVLKSAISFKENIIF (Previously reported sequence) [SEQ ID NO: 1128, reference compound]” reads 89%; that for “MSRVLFEPLTFLQTGSGLPDEKTLG (Previously reported sequence) [SEQ ID NO: 1096, reference compound]”, 94%. The same measure, in the same setting: the result for “VPTKLSPISILYLDKGVVTYKFKYEGMSVAECGCR (Previously reported sequence) [SEQ ID NO: 1108, reference compound]” reads 80%.

The values above are taken from patent US11578110B2, “Compounds for inducing tissue formation and uses thereof” (HISTIDE AG, priority 2015, dated 2023).
